Drawing on patent US9770452B2, “Quinoxaline derivatives as GPR6 modulators” (Takeda Pharmaceutical Company Limited, priority 2012, dated 2017), this text covers IC50 for 40 molecules.

Counter-ions that a name gives are not always drawn.

In one assay the target is T1, GPR6 receptor (Homo sapiens, UniProt P46095).
T1 construct: expressed in transfected cells
T1 sequence (P46095 whole entry): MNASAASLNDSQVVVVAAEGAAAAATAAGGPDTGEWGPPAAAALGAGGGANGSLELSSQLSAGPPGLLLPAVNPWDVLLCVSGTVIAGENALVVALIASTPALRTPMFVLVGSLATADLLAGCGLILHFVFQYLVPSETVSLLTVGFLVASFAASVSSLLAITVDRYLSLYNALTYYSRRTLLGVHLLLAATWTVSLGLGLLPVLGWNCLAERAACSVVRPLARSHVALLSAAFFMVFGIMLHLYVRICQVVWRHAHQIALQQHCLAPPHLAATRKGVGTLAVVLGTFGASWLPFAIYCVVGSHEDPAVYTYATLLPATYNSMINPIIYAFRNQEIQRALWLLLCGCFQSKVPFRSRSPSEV
The assay is described as follows: Inhibition of cAMP Activity of GPR6 In Vitro Assay (CHO-K1 cells, HTRF cAMP). In kind it is cell-based. Conditions: compounds of Compound Table 1; inhibition of constitutive cAMP activity of GPR6 expressed in CHO-K1 cells; approximate IC50; read-out: IC50. In a few lines:
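CHO-K1 cells with doxycycline-induced (1 μg/ml, 20 h) GPR6 treated with compounds 45 min at 37 °C in Ringer's buffer (pH 7.4) with 0.5% fatty acid free BSA. Constitutive cAMP measured by Lance HTRF Ultra cAMP; IC50 from four-parameter logistic fit.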
In general terms: TR-FRET usually uses a lanthanide donor and a delayed reading to cut background.
Consider “N-cyclopropyl-3-(4-(2-fluoro-4-(methylthio)phenoxy)piperidin-1-yl)pyrazino[2,3-d]pyridazin-2-amine, 2,2,2-trifluoroacetic acid salt [Cpd 618]”, for which the IC50 (in general, the concentration that gives 50% inhibition) worked out at 12 nM.

In the case of “(2-bromophenyl)(1-(2-(cyclopropylamino)pyrido[3,4-b]pyrazin-3-yl)piperidin-4-yl)methanone, 2,2,2-trifluoroacetic acid salt [Cpd 585]”, the IC50 worked out at 6040 nM. For `O=C(c1cc2nc(NC3CC3)c(N3CCC([C@H](F)c4ccc(F)cc4F)CC3)nc2cn1)N1CCC1` [Cpd 591, (S)-azetidin-1-yl(2-(cyclopropylamino)-3-(4-((2,4-difluorophenyl)fluoromethyl)piperidin-1-yl)pyrido[3,4-b]pyrazin-7-yl)methanone], the IC50 was 22 nM.

“(4-chlorophenyl)(4-(3-(pyridin-3-ylamino)quinoxalin-2-yl)piperazin-1-yl)methanone, 2,2,2-trifluoroacetic acid salt [Cpd 223]”: the IC50 was found to be 5620 nM.

Consider “3-(4-(4-chloro-2-fluorophenoxy)piperidin-1-yl)-2-(cyclopropylamino)quinoxaline-6-carbonitrile, 2,2,2-trifluoroacetic acid salt [Cpd 465]”, for which the IC50 amounted to 11 nM. Turning to `c1ccc(CN2CCN(c3nc4ccccc4nc3NC3CC3)CC2)nc1` [Cpd 20, N-cyclopropyl-3-(4-(pyridin-2-ylmethyl)piperazin-1-yl)quinoxalin-2-amine, 22,2,2-trifluoroacetic acid salt], the IC50 was determined as 69200 nM. Regarding “(4-chloro-2-fluorophenyl)(1-(2-(cyclopropylamino)pyrido[3,4-b]pyrazin-3-yl)piperidin-4-yl)methanone, 2,2,2-trifluoroacetic acid salt [Cpd 447]”, the IC50 turned out to be 35 nM. For the molecule “3-(4-(2-fluoro-4-methoxyphenoxy)piperidin-1-yl)-2-(isopropylamino)pyrido[3,4-b]pyrazine-7-carbonitrile, 2,2,2-trifluoroacetic acid salt [Cpd 628]”, the IC50 amounted to 276 nM. For the molecule `N#Cc1ccc2nc(NC3CC3)c(N3CCC(C(F)c4cc(F)ccc4F)CC3)nc2c1` (stereo not shown) [Cpd 471], the IC50 came to 75 nM. For the molecule “(1-(2-(cyclopropylamino)pyrido[3,4-b]pyrazin-3-yl)piperidin-4-yl)(2,4,6-trifluorophenyl)methanone, 2,2,2-trifluoroacetic acid salt [Cpd 444]”, the IC50 turned out to be 200 nM. On the same count and under the same terms, to “N-cyclopropyl-3-(4-(4-fluoro-2-methylbenzyl)piperazin-1-yl)quinoxalin-2-amine, 2,2,2-trifluoroacetic acid salt [Cpd 157]” belongs 105000 nM; to “N2-cyclopropyl-3-(4-(2-fluoro-4-methoxyphenoxy)piperidin-1-yl)-N5,N5-dimethylpyrido[3,4-b]pyrazine-2,5-diamine, 2,2,2-trifluoroacetic acid salt [Cpd 607]”, 43 nM. Still for that read-out and setting: to “2-(cyclopropylamino)-3-(4-(2,4-difluorobenzyl)piperidin-1-yl)quinoxaline-6-carbonitrile, 2,2,2-trifluoroacetic acid salt [Cpd 416]” belongs 1510 nM; to “7-chloro-N-cyclopropyl-3-(4-(2,4-difluorobenzyl)piperidin-1-yl)pyrido[3,4-b]pyrazin-2-amine [Cpd 592]”, 26 nM; to “(4-chlorophenyl)(1-(2-(cyclopropylamino)pyrido[3,4-b]pyrazin-3-yl)piperidin-4-yl)methanone, 2,2,2-trifluoroacetic acid salt [Cpd 430]”, 1100 nM. For “(1-(2-(cyclopropylamino)pyrido[3,4-b]pyrazin-3-yl)piperidin-4-yl)(2-fluoro-5-(methylthio)phenyl)methanone, 2,2,2-trifluoroacetic acid salt [Cpd 593]”, the IC50 was 23 nM. On to “3-(4-(4-chloro-2-fluorophenoxy)piperidin-1-yl)-2-(isopropylamino)-N,N-dimethylpyrido[3,4-b]pyrazine-7-carboxamide, 2,2,2-trifluoroacetic acid salt [Cpd 630]”, for which the IC50 was 7 nM.

As to “3-(4-(5-(tert-butyl)-2-methoxybenzyl)piperazin-1-yl)-N-cyclopropylpyrido[3,4-b]pyrazin-2-amine, 2,2,2-trifluoroacetic acid salt [Cpd 306]”, the IC50 was 380 nM. Consider “3-(4-(2,5-difluorobenzyl)piperazin-1-yl)-2-((6-methoxypyridin-3-yl)amino)quinoxaline-6-carbonitrile, 2,2,2-trifluoroacetic acid salt [Cpd 333]”, for which the IC50 turned out to be 97 nM.

In the case of “N-cyclopropyl-3-(4-(2,4-difluorophenoxy)piperidin-1-yl)-5-methylpyrido[3,4-b]pyrazin-2-amine, 2,2,2-trifluoroacetic acid salt [Cpd 494]”, the IC50 was found to be 2 nM. Same read-out and setting: under “N-cyclohexyl-3-(4-(2,5-dichlorobenzyl)piperazin-1-yl)quinoxalin-2-amine, 2,2,2-trifluoroacetic acid salt [Cpd 170]” stands 4070 nM. As to `c1ccc2nc(N3CCN(Cc4coc5ccccc45)CC3)c(NC3CC3)nc2c1` [Cpd 100, 3-(4-(benzofuran-3-ylmethyl)piperazin-1-yl)-N-cyclopropylquinoxalin-2-amine], the half-maximal inhibitory concentration (IC50) amounted to 3960 nM. Consider “6-bromo-N-cyclopropyl-3-(4-((2,5-difluorophenyl)fluoromethyl)piperidin-1-yl)quinoxalin-2-amine, 2,2,2-trifluoroacetic acid salt [Cpd 500]”, for which the IC50 was found to be 160 nM. The same measure, in the same setting: to “3-(4-((2,4-difluorophenyl)fluoromethyl)piperidin-1-yl)-N-isopropylpyrido[3,4-b]pyrazin-2-amine, 2,2,2-trifluoroacetic acid salt [Cpd 621]” belongs 21 nM; to `Clc1ccc(NC2CCN(c3nc4ccccc4nc3NC3CC3)CC2)cc1` [Cpd 413, 3-(4-((4-chlorophenyl)amino)piperidin-1-yl)-N-cyclopropylquinoxalin-2-amine, 22,2,2-trifluoroacetic acid salt], 19 nM. The same measure, in the same setting: under “3-(4-((5-chloro-2-fluorophenyl)difluoromethyl)piperidin-1-yl)-N-cyclopropylpyrido[3,4-b]pyrazin-2-amine [Cpd 539]” stands 770 nM.

Turning to “2-((2,2-difluoroethyl)amino)-3-(4-(2,4-difluorophenoxy)piperidin-1-yl)quinoxaline-6-carbonitrile [Cpd 513]”, the IC50 came to 71 nM. For the molecule “(S)-2-(cyclopropylamino)-3-(4-((2,4-difluorophenyl)fluoromethyl)piperidin-1-yl)-N,N-dimethylpyrido[3,4-b]pyrazine-7-carboxamide, 2,2,2-trifluoroacetic acid salt [Cpd 576]”, the IC50 stood at 2880 nM. On to “(R)—N-cyclopropyl-3-(4-((2,4-difluorophenyl)fluoromethyl)piperidin-1-yl)pyrazino[2,3-d]pyridazin-2-amine, 2,2,2-trifluoroacetic acid salt [Cpd 599]”, for which the IC50 is 5 nM. For the molecule “3-(4-(2,4-difluorobenzyl)piperazin-1-yl)-N-isopropylpyrazino[2,3-d]pyridazin-2-amine 2,2,2-trifluoroacetate [Cpd 650]”, the IC50 was 1000 nM.

On to `O=S(=O)(c1ccccc1)N1CCN(c2nc3ccccc3nc2NC2CC2)CC1` [Cpd 105, N-cyclopropyl-3-(4-(phenylsulfonyl)piperazin-1-yl)quinoxalin-2-amine], for which the IC50 was 5660 nM. Consider “3-(4-(2,5-dichlorobenzyl)piperazin-1-yl)-2-(isoxazol-3-ylamino)quinoxaline-6-carbonitrile, 2,2,2-trifluoroacetic acid salt [Cpd 340]”, for which the half-maximal inhibitory concentration (IC50) stood at 15400 nM. Regarding “3-fluoro-4-((1-(3-(isopropylamino)pyrazino[2,3-d]pyridazin-2-yl)piperidin-4-yl)oxy)phenol, 2,2,2-trifluoroacetic acid salt [Cpd 648]”, the IC50 was 65 nM.

Turning to “(R)-7-chloro-N-cyclopropyl-3-(4-((2,4-difluorophenyl)fluoromethyl)piperidin-1-yl)pyrido[3,4-b]pyrazin-2-amine, 2,2,2-trifluoroacetic acid salt [Cpd 523]”, the IC50 stood at 340 nM.

For the molecule `N#Cc1ccc(C(=O)N2CCN(c3nc4ccccc4nc3NC3CC3)CC2)cc1` [Cpd 75, 4-(4-(3-(cyclopropylamino)quinoxalin-2-yl)piperazine-1-carbonyl)benzonitrile, 2,2,2-trifluoroacetic acid salt], the IC50 was determined as 21800 nM. In the case of “3-(4-((4-bromophenyl)sulfonyl)piperazin-1-yl)-2-(cyclopropylamino)quinoxaline-6-carbonitrile [Cpd 251]”, the IC50 is 4340 nM. As for “2-(cyclopropylamino)-3-(4-((2,5-dichlorophenyl)sulfonyl)piperazin-1-yl)quinoxaline-6-carbonitrile [Cpd 226]”, the half-maximal inhibitory concentration (IC50) is 570 nM.

As to “3-(4-(2,5-dichlorobenzyl)piperazin-1-yl)-N-(pyridin-4-yl)quinoxalin-2-amine, 2,2,2-trifluoroacetic acid salt [Cpd 214]”, the IC50 is 1470 nM. For the molecule `Clc1cc(CN2CCN(c3nc4ccccc4nc3NC3CC3)CC2)c(Cl)s1` [Cpd 99, N-cyclopropyl-3-(4-((2,5-dichlorothiophen-3-yl)methyl)piperazin-1-yl)quinoxalin-2-amine, 2,2,2-trifluoroacetic acid salt], the IC50 was found to be 6030 nM.

Staying with this assay, now noted: compounds of Compound Table 2; inhibition of constitutive cAMP activity of GPR6 expressed in CHO-K1 cells; approximate IC50; read-out: IC50.
`Cc1cc2nc(NC3CC3)c(C3CCN(Cc4ccc(F)cc4F)CC3)nc2cn1` [Compound Table 2: Cpd 6, N-cyclopropyl-3-(1-(2,4-difluorobenzyl)piperidin-4-yl)-7-methylpyrido[3,4-b]pyrazin-2-amine, 2,2,2-trifluoroacetic acid salt]: the IC50 came to 530 nM.
